Residues, ends and D or L forms follow the SMILES beside them. *: point of attachment. Cbz = O=C(OCc1ccccc1)*
Molecular target: T1, microbial transglutaminase (MTG) (Streptomyces mobaraensis, UniProt P81453)
T1 sequence (P81453 77-407): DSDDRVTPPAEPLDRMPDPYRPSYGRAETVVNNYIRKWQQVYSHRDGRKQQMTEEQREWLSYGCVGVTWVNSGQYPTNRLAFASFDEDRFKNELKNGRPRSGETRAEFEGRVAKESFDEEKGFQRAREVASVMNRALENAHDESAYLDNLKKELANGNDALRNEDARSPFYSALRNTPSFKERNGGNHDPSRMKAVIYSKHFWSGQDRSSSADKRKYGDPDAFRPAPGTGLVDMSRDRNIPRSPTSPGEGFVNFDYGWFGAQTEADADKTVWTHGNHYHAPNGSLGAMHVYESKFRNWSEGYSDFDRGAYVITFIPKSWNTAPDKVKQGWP
Assay: colorimetric hydroxamate assay, absorbance at […] nm
Format: biochemical
Settings: 37 °C, 10 min; hydroxamate formation

NC(=O)CC[C@H](NC(=O)OCc1ccccc1)C(=O)NCC(=O)O [Z-QG, N-carbobenzoxy-L-glutaminylglycine] (Cbz-Gln-Gly-OH)
specific activity: specific MTG activity was measured with a colorimetric hydroxamate procedure using N-carbobenzoxy-L-glutaminylglycine (Z-QG)

Source: PMC11445358 (Applied Microbiology and Biotechnology, 2024)
